Measured values from PubChem BioAssay AID192 (DTP/NCI, 2004).
“And” between values parts separate entries of the source, which are not always exact repeats. Equal entries are not always repeated. Toxic doses and inconclusive results are not listed. How the source made its calls: active means survival T/C of 150% or more; inactive means T/C below 125% in these data.

Test system: BDF1 mice, B16 melanoma ip, median survival T/C
Assay: NCI In Vivo Anticancer Drug Screen. Data for tumor model B16 Melanoma (intraperitoneal) in B6D2F1 (BDF1) mice
Conditions: endpoint: median survival time, higher = longer survival
Description: The antitumor activity of compounds was measured in mice bearing transplantable tumors. Survival or tumor size were measured and the results are expressed as the measurement made in the treated group (T) divided by the measurement made in the vehicle treated control group (C). The tumor model used in this assay is B16 Melanoma (intraperitoneal) in B6D2F1 (BDF1) mice

[1] = dose: 25.0 mg/kg/injection, schedule: Q01DX009 (ip), vehicle: Klucel (hydroxypropylcellulose) (HPC)
[2] = dose: 25.0 mg/kg/injection, schedule: Q01DX009 (ip), vehicle: saline with Tween-80
[3] = dose: 50.0 mg/kg/injection, schedule: Q01DX009 (ip), vehicle: saline with Tween-80
[4] = dose: 100.0 mg/kg/injection, schedule: Q01DX009 (ip), vehicle: Klucel (hydroxypropylcellulose) (HPC)
[5] = dose: 200.0 mg/kg/injection, schedule: Q01DX009 (ip), vehicle: Klucel (hydroxypropylcellulose) (HPC)
[6] = dose: 200.0 mg/kg/injection, schedule: Q01DX009 (ip), vehicle: saline with Tween-80
[7] = dose: 100.0 mg/kg/injection, schedule: Q04DX003 (ip), vehicle: Klucel (hydroxypropylcellulose) (HPC)
[8] = dose: 200.0 mg/kg/injection, schedule: Q04DX003 (ip), vehicle: Klucel (hydroxypropylcellulose) (HPC)
[9] = dose: 100.0 mg/kg/injection, schedule: Q01DX009 (ip), vehicle: saline

Measured: T/C

CC(=O)[C@]1(O)Cc2c(O)c3c(c(O)c2[C@@H](OC2CC(N)C(O)C(C)O2)C1)C(=O)c1c(O)cccc1C3=O (stereo not given in full)
inactive: dose: 0.04 mg/kg/injection, schedule: Q01DX001 (ip), vehicle: water 105 % of control | dose: 0.08 mg/kg/injection, schedule: Q01DX001 (ip), vehicle: water 113 % of control and 124 % of control | dose: 0.16 mg/kg/injection, schedule: Q01DX001 (ip), vehicle: water 124 % of control | dose: 0.38 mg/kg/injection, schedule: Q01DX001 (ip), vehicle: water 124 % of control

O=C1CC2(CCCCC2)CO1
inactive: dose: 0.09 mg/kg/injection, schedule: Q01DX009 (ip), vehicle: saline 102 % of control | dose: 0.19 mg/kg/injection, schedule: Q01DX009 (ip), vehicle: saline 95 % of control | dose: 0.39 mg/kg/injection, schedule: Q01DX009 (ip), vehicle: saline 91 % of control | dose: 0.78 mg/kg/injection, schedule: Q01DX009 (ip), vehicle: saline 95 % of control | dose: 1.56 mg/kg/injection, schedule: Q01DX009 (ip), vehicle: saline 95 % of control

CCCCNC(C)(C)C(SS)c1ccco1 (stereo not given)
inactive: dose: 3.0 mg/kg/injection, schedule: Q01DX009 (ip), vehicle: alcohol 107 % of control | dose: 6.0 mg/kg/injection, schedule: Q01DX009 (ip), vehicle: alcohol 107 % of control | dose: 12.0 mg/kg/injection, schedule: Q01DX009 (ip), vehicle: alcohol 112 % of control | dose: 37.5 mg/kg/injection, schedule: Q01DX009 (ip), vehicle: saline 87 % of control | dose: 55.0 mg/kg/injection, schedule: Q01DX009 (ip), vehicle: saline 106 % of control

CCOC(=O)CCCN(c1sc(C)c(C)c1C(=O)OCC)S(=O)(=O)c1ccc(C)cc1
inactive: dose: 50.0 mg/kg/injection, schedule: Q04DX003 (ip), vehicle: saline with Tween-80 111 % of control | dose: 100.0 mg/kg/injection, schedule: Q04DX003 (ip), vehicle: saline with Tween-80 105 % of control | dose: 200.0 mg/kg/injection, schedule: Q04DX003 (ip), vehicle: saline with Tween-80 111 % of control | dose: 400.0 mg/kg/injection, schedule: Q04DX003 (ip), vehicle: saline with Tween-80 100 % of control

ClC1C(Cl)C(Cl)C(Cl)C(Cl)C1Cl (stereo not given)
inactive: [1] 95 % of control | [2] 100 % of control | dose: 50.0 mg/kg/injection, schedule: Q01DX009 (ip), vehicle: Klucel (hydroxypropylcellulose) (HPC) 105 % of control | [3] 99 % of control | [4] 93 % of control | [5] 93 % of control | [6] 96 % of control | dose: 400.0 mg/kg/injection, schedule: Q01DX009 (ip), vehicle: saline with Tween-80 89 % of control

COC(=O)C1(C(=O)OC)CCCCC1=O
inactive: [7] 93 % of control | [8] 94 % of control

NC(=O)Nc1ccccc1
inactive: [9] 97 % of control | dose: 200.0 mg/kg/injection, schedule: Q01DX009 (ip), vehicle: saline 100 % of control | dose: 400.0 mg/kg/injection, schedule: Q01DX009 (ip), vehicle: saline 104 % of control

Cc1ccc(S(=O)(=O)N/N=C\c2cc(Cl)ccc2O)cc1
inactive: [4] 100 % of control | [5] 105 % of control | dose: 400.0 mg/kg/injection, schedule: Q01DX009 (ip), vehicle: Klucel (hydroxypropylcellulose) (HPC) 102 % of control

COCCOCCN1CCN(CCCN2c3ccccc3Sc3ccc(C(F)(F)F)cc32)CC1
inactive: dose: 0.31 mg/kg/injection, schedule: Q01DX009 (ip), vehicle: saline 106 % of control | dose: 0.62 mg/kg/injection, schedule: Q01DX009 (ip), vehicle: saline 101 % of control | dose: 1.25 mg/kg/injection, schedule: Q01DX009 (ip), vehicle: saline 108 % of control | dose: 2.5 mg/kg/injection, schedule: Q01DX009 (ip), vehicle: saline 100 % of control

Cc1ccc(S(=O)(=O)c2ccc(Sc3cccc[n+]3[O-])c3nonc23)cc1
inactive: dose: 80.0 mg/kg/injection, schedule: Q04DX002 (ip), vehicle: saline with Tween-80 97 % of control | dose: 160.0 mg/kg/injection, schedule: Q04DX002 (ip), vehicle: saline with Tween-80 102 % of control | dose: 320.0 mg/kg/injection, schedule: Q04DX002 (ip), vehicle: saline with Tween-80 100 % of control

CS/C([S-])=N/[NH-].CS/C([S-])=N/[NH-].[Pd]
inactive: dose: 3.13 mg/kg/injection, schedule: Q01DX009 (ip), vehicle: saline with Tween-80 98 % of control | dose: 6.25 mg/kg/injection, schedule: Q01DX009 (ip), vehicle: saline with Tween-80 101 % of control | dose: 12.5 mg/kg/injection, schedule: Q01DX009 (ip), vehicle: saline with Tween-80 99 % of control

C1=C(c2ccccc2)CCC1
inactive: dose: 50.0 mg/kg/injection, schedule: Q01DX009 (ip), vehicle: saline 97 % of control | [9] 88 % of control

NCCCC(N)(C(=O)O)C(F)F (stereo not given)
inactive: dose: 50.0 mg/kg/injection, schedule: Q01DX009 (ip), vehicle: distilled water + alcohol 94 % of control | dose: 100.0 mg/kg/injection, schedule: Q01DX009 (ip), vehicle: distilled water + alcohol 101 % of control | dose: 200.0 mg/kg/injection, schedule: Q01DX009 (ip), vehicle: distilled water + alcohol 97 % of control | dose: 400.0 mg/kg/injection, schedule: Q01DX009 (ip), vehicle: distilled water + alcohol 100 % of control | dose: 800.0 mg/kg/injection, schedule: Q01DX009 (ip), vehicle: distilled water + alcohol 110 % of control

COc1cccc(O)c1
inactive: [2] 97 % of control | [3] 96 % of control | dose: 100.0 mg/kg/injection, schedule: Q01DX009 (ip), vehicle: saline with Tween-80 91 % of control | [6] 86 % of control

BrC1(Br)CC1(c1ccccc1)c1ccccc1
inactive: dose: 50.0 mg/kg/injection, schedule: Q04DX003 (ip), vehicle: Klucel (hydroxypropylcellulose) (HPC) 111 % of control | [7] 105 % of control | [8] 102 % of control

Cc1c2oc3c(C)ccc(C(=O)NCCN4CCCCC4)c3nc-2c(C(=O)NCCN2CCCCC2)c(N)c1=O
inactive: dose: 12.5 mg/kg/injection, schedule: Q01DX009 (ip), vehicle: Klucel (hydroxypropylcellulose) (HPC) 97 % of control | [1] 112 % of control
